Format in all cases: functional
The subject of test [1] is Aspergillus niger. The experiment in a line: Antifungal activity against Aspergillus niger after 48 hr by microdilution method.
Test [2] concerns Pseudomonas fluorescens. In words: Antibacterial activity against Pseudomonas fluorescens at 25 ug/disk after 24 hr by disk diffusion method. The following applies: read-out: DIZ. For orientation: In agar diffusion tests the substance spreads into inoculated agar from a disc or well.
The subject of test [3] is Fusarium verticillioides. In words: Antifungal activity against Fusarium verticillioides after 48 hr by microdilution method. Background: In broth dilution the organism is exposed to a series of concentrations in liquid medium.
The subject of test [4] is Penicillium sp. The experiment in a line: Antifungal activity against Penicillium sp. at 25 ug/disk after 48 hr by disk diffusion method. The following applies: for zone of inhibition at 25 µg/disc: read-out: DIZ.
The subject of test [5] is Bacillus subtilis. The experiment in a line: Antibacterial activity against Bacillus subtilis by microdilution method.
For test [6], the system named is Aspergillus flavus. In words: Antifungal activity against Aspergillus flavus at 25 ug/disk after 48 hr by disk diffusion method. The following applies: for zone of inhibition at 25 µg/disc: read-out: DIZ.
The test system of test [7] is Escherichia coli. The experiment in a line: Antibacterial activity against Escherichia coli by microdilution method.
For test [8], the system named is Xanthomonas oryzae. In words: Antibacterial activity against Xanthomonas oryzae at 25 ug/disk after 24 hr by disk diffusion method. The following applies: read-out: DIZ.
In test [9] the test system is Fusarium verticillioides. In words: Antifungal activity against Fusarium verticillioides at 25 ug/disk after 48 hr by disk diffusion method. The following applies: for zone of inhibition at 25 µg/disc: read-out: DIZ.
The subject of test [10] is Aspergillus flavus. The experiment in a line: Antifungal activity against Aspergillus flavus after 48 hr by microdilution method.
Test [11] relates to Aspergillus niger. The experiment in a line: Antifungal activity against Aspergillus niger at 25 ug/disk after 48 hr by disk diffusion method. The following applies: for zone of inhibition at 25 µg/disc: read-out: DIZ.
Test [12] concerns Xanthomonas euvesicatoria pv. sesami. The experiment in a line: Antibacterial activity against Xanthomonas campestris pv. sesami at 25 ug/disk after 24 hr by disk diffusion method. The following applies: read-out: DIZ.
Test [13] deals with Penicillium sp. The experiment in a line: Antifungal activity against Penicillium sp. after 48 hr by microdilution method.
Test [14] concerns Xanthomonas euvesicatoria pv. sesami. The experiment in a line: Antibacterial activity against Xanthomonas campestris pv. sesami by microdilution method.
For test [15], the system named is Trichoderma. In words: Antifungal activity against Trichoderma sp. after 48 hr by microdilution method.
In test [16] the test system is Bacillus subtilis. In words: Antibacterial activity against Bacillus subtilis at 25 ug/disk after 24 hr by disk diffusion method. The following applies: read-out: DIZ.
In test [17] the test system is Pseudomonas fluorescens. In words: Antibacterial activity against Pseudomonas fluorescens by microdilution method.
The subject of test [18] is Trichoderma. The experiment in a line: Antifungal activity against Trichoderma sp. at 25 ug/disk after 48 hr by disk diffusion method. The following applies: for zone of inhibition at 25 µg/disc: read-out: DIZ.
Test [19] concerns Escherichia coli. The experiment in a line: Antibacterial activity against Escherichia coli at 25 ug/disk after 24 hr by disk diffusion method. The following applies: read-out: DIZ.
Test [20] concerns Fusarium oxysporum. The experiment in a line: Antifungal activity against Fusarium oxysporum at 25 ug/disk after 48 hr by disk diffusion method. The following applies: for zone of inhibition at 25 µg/disc: read-out: DIZ.
For test [21], the system named is Xanthomonas oryzae. The experiment in a line: Antibacterial activity against Xanthomonas oryzae by microdilution method.
The test system of test [22] is Fusarium oxysporum. In words: Antifungal activity against Fusarium oxysporum after 48 hr by microdilution method.

In brackets after ≈: the same amount, converted by molar mass.

The term MIC denotes the lowest concentration found to suppress growth. A lower MIC goes with greater potency. On to `CCc1ccc(CCOc2ccc(C3=NOC(Cc4ccc5c(c4)OCO5)C3)cc2)nc1` (stereo unspecified), for which the minimum inhibitory concentration (MIC) in the test on Aspergillus niger [1] came to 22 µg/mL (≈ 51.1 µM); in the test with Fusarium verticillioides [3] it was 18 µg/mL (≈ 41.8 µM); against Bacillus subtilis [5], 25 µg/mL (≈ 58.1 µM); with Escherichia coli [7], 22 µg/mL (≈ 51.1 µM); against Aspergillus flavus [10] it was 21 µg/mL (≈ 48.8 µM); against Penicillium sp. [13], 21 µg/mL (≈ 48.8 µM). Also, the MIC came to 21 µg/mL (≈ 48.8 µM) in [14]; 20 µg/mL (≈ 46.5 µM) against Trichoderma [15]; 20 µg/mL (≈ 46.5 µM) in the test with Pseudomonas fluorescens [17]; 22 µg/mL (≈ 51.1 µM) with Xanthomonas oryzae [21]; 22 µg/mL (≈ 51.1 µM) against Fusarium oxysporum [22]. Also, the zone of inhibition at 25 µg/disc in the test on Pseudomonas fluorescens [2] was determined as 7 mm; in the test on Penicillium sp. [4], 2 mm; in the test with Aspergillus flavus [6] it was 3 mm; with Xanthomonas oryzae [8], 3 mm; with Fusarium verticillioides [9], 3 mm; with Aspergillus niger [11], 3 mm. Also, the zone of inhibition at 25 µg/disc in test [12] worked out at 4 mm; in the test on Bacillus subtilis [16], 5 mm; in the test with Trichoderma [18], 4 mm; in the test on Escherichia coli [19], 6 mm; with Fusarium oxysporum [20], 4 mm.
`CCc1ccc(CCOc2ccc(C3=NOC(Cc4ccc(O)c(OC)c4)C3)cc2)nc1` (stereo unspecified): the MIC against Aspergillus niger [1] is 16 µg/mL (≈ 37 µM); with Fusarium verticillioides [3], 10 µg/mL (≈ 23.1 µM); against Bacillus subtilis [5], 18 µg/mL (≈ 41.6 µM); with Escherichia coli [7] it was 14 µg/mL (≈ 32.4 µM); in the test with Aspergillus flavus [10] it was 15 µg/mL (≈ 34.7 µM); in the test with Penicillium sp. [13] it was 11 µg/mL (≈ 25.4 µM). Also, the minimum inhibitory concentration (MIC) in test [14] stood at 10 µg/mL (≈ 23.1 µM); in the test with Trichoderma [15], 13 µg/mL (≈ 30.1 µM); in the test with Pseudomonas fluorescens [17], 12 µg/mL (≈ 27.7 µM); in the test with Xanthomonas oryzae [21] it was 13 µg/mL (≈ 30.1 µM); with Fusarium oxysporum [22], 12 µg/mL (≈ 27.7 µM). Besides, the zone of inhibition at 25 µg/disc was 18 mm in the test with Pseudomonas fluorescens [2]; 9 mm in the test on Penicillium sp. [4]; 10 mm in the test on Aspergillus flavus [6]; 12 mm in the test with Xanthomonas oryzae [8]; 11 mm in the test on Fusarium verticillioides [9]; 7 mm in the test with Aspergillus niger [11]. The zone of inhibition at 25 µg/disc in test [12] is 13 mm; in the test with Bacillus subtilis [16] it was 12 mm; in the test on Trichoderma [18] it was 15 mm; in the test on Escherichia coli [19] it was 14 mm; with Fusarium oxysporum [20], 13 mm.
On to NYSTATIN, for which the MIC against Aspergillus niger [1] worked out at 15 µg/mL; in the test on Fusarium verticillioides [3], 9 µg/mL; in the test on Aspergillus flavus [10], 15 µg/mL; against Penicillium sp. [13], 10 µg/mL; with Trichoderma [15], 12 µg/mL; against Fusarium oxysporum [22] it was 11 µg/mL. Besides, the inhibition zone (IZ) with Penicillium sp. [4] is 10 mm; with Aspergillus flavus [6] it was 10 mm; in the test with Fusarium verticillioides [9] it was 12 mm; in the test on Aspergillus niger [11] it was 8 mm; with Trichoderma [18], 16 mm; in the test with Fusarium oxysporum [20] it was 14 mm.
As for `CN[C@@H]1[C@H](O[C@H]2[C@H](O[C@H]3[C@H](O)[C@@H](O)[C@H](N=C(N)N)[C@@H](O)[C@@H]3N=C(N)N)O[C@@H](C)[C@]2(O)C=O)O[C@@H](CO)[C@H](O)[C@H]1O` [STREPTOMYCIN], the zone of inhibition at 25 µg/disc in the test with Pseudomonas fluorescens [2] was found to be 17 mm; in the test on Bacillus subtilis [16], 13 mm; with Escherichia coli [19], 14 mm. Also, the MIC against Bacillus subtilis [5] stood at 19 µg/mL (≈ 32.7 µM); with Escherichia coli [7] it was 13 µg/mL (≈ 22.4 µM); against Pseudomonas fluorescens [17] it was 12 µg/mL (≈ 20.6 µM).
With `CN(C)[C@@H]1C(O)=C(C(N)=O)C(=O)[C@@]2(O)C(O)=C3C(=O)c4c(O)cccc4[C@@](C)(O)[C@H]3C[C@@H]12` [TETRACYCLINE], the zone of inhibition at 25 µg/disc (in the test with Xanthomonas oryzae [8]; in test [12]) was 12 mm throughout. For the same compound, the MIC in [14] was 9 µg/mL (≈ 20.3 µM); with Xanthomonas oryzae [21] it was 13 µg/mL (≈ 29.3 µM).

The values are drawn from ChEMBL document CHEMBL3045518, “Synthesis of novel 3-[5-ethyl-2-(2-phenoxy-ethyl)-pyridin]-5-substituted isoxazoline libraries via 1,3-dipolar cycloaddition and evaluation of antimicrobial activities” (2006).
